ChEMBL document CHEMBL5512603, “Development of de-novo coronavirus 3-chymotrypsin-like protease (3CLpro) inhibitors since COVID-19 outbreak: A strategy to tackle challenges of persistent virus infection” (Eur J Med Chem, 2024)

Legend:
[1] = target: Protein cereblon/Replicase polyprotein 1ab (Severe acute respiratory syndrome coronavirus 2, UniProt P0DTD1+Q96SW2); test: PROTAC activity at SARS-CoV-2 Main protease/CRBN E3 ligase (unknown origin)
[2] = target: T1, Replicase polyprotein 1ab (Severe acute respiratory syndrome coronavirus 2, UniProt P0DTD1); test: Inhibition of SARS-CoV-2 3CLp
[3] = target: T1, Replicase polyprotein 1ab; test: Inhibition of SARS-CoV-2 recombinant main protease; assay type: single protein
[4] = target: T1, Replicase polyprotein 1ab; test: Inhibition of 2019-nCoV-2 3CLp using fluorescent substrate by FRET assay
[5] = target: T1, Replicase polyprotein 1ab; test: Inhibition of SARS-CoV-2 3CLp by mass spectrometry
[6] = Cytotoxicity against African green monkey Vero E6 cells; assay type: toxicity, cell-based, Vero C1008; details: chlorocebus sabaeus
[7] = target: T1, Replicase polyprotein 1ab; test: Inhibition of SARS-CoV-2 3CLp using fluorescent substrate by FRET assay

Chain of Protein cereblon/Replicase polyprotein 1ab (Q96SW2 whole entry, other chains not shown): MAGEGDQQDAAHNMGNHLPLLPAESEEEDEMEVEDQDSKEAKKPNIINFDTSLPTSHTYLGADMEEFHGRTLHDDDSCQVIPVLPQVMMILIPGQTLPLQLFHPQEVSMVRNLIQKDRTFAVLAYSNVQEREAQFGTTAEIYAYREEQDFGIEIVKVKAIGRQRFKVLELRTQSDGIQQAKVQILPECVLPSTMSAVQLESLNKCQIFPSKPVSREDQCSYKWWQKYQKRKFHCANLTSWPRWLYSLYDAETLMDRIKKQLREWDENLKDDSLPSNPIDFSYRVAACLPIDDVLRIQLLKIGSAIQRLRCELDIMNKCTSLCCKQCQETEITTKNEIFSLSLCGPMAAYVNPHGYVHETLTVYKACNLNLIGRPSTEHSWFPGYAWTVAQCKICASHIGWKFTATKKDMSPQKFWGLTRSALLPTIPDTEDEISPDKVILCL

Cn1cc2cc(/N=c3\[nH]c(=O)n(Cc4cn(CCCC(=O)Nc5cccc6c5C(=O)N(C5CCC(=O)NC5=O)C6=O)nn4)c(=O)n3Cc3cc(F)c(F)cc3F)c(Cl)cc2n1 (stereo not given)
EC50 [1]: < 100 nM | IC50 [2]: < 100 nM

COCCCc1cc(Cl)cc(-c2cc(-c3c[nH]c(=O)[nH]c3=O)cn(-c3cccnc3)c2=O)c1
IC50 [3]: 25 nM

Cn1cc2cc(/N=c3\[nH]c(=O)n(Cc4nnn[nH]4)c(=O)n3Cc3cc(F)c(F)cc3F)c(Cl)cc2n1
IC50 [4]: 120 nM

CN(C)CCn1cc2cc(Nc3nc(=O)n(Cc4ccc[nH]c4=O)c(=O)n3Cc3cc(F)c(F)c(F)c3)c(Cl)cc2n1
IC50 [5]: < 1000 nM

Cn1cc2cc(/N=c3\[nH]c(=O)n(Cc4cn(CCC(=O)Nc5cccc6c5C(=O)N(C5CCC(=O)NC5=O)C6)nn4)c(=O)n3Cc3cc(F)c(F)cc3F)c(Cl)cc2n1 (stereo not given)
EC50 [1]: > 100 nM | IC50 [2]: > 100 nM

Cn1cc2cc(/N=c3\[nH]c(=O)n(Cc4cn(CCCCCC(=O)Nc5cccc6c5C(=O)N(C5CCC(=O)NC5=O)C6=O)nn4)c(=O)n3Cc3cc(F)c(F)cc3F)c(Cl)cc2n1 (stereo not given)
EC50 [1]: < 100 nM | IC50 [2]: < 100 nM

C[C@H](NC(=O)[C@@H](c1cccnc1)N(C(=O)c1ccco1)c1ccc(C(C)(C)C)cc1)c1ccccc1
IC50 [4]: 5700 nM

Cc1cccc(OCc2cc(Cl)cc(-c3cc(-c4c[nH]c(=O)[nH]c4=O)cn(-c4cccnc4)c3=O)c2)c1
IC50 [3]: 110 nM

O=c1[nH]cc(-c2cc(-c3cc(Cl)cc(COc4cccc(F)c4)c3)c(=O)n(-c3cccnc3)c2)c(=O)[nH]1
IC50 [3]: 37 nM

Cn1cc2cc(Nc3nc(=O)n(Cc4ccc[nH]c4=O)c(=O)n3Cc3cc(F)c(F)c(F)c3)c(Cl)cc2n1
IC50 [5]: < 1000 nM

CCn1cc2cc(Nc3nc(=O)n(-c4cncc(Cl)c4)c(=O)n3Cc3cc(C#N)ccc3Cl)ccc2n1
IC50 [5]: 355 nM

Cn1cnc(Cn2c(=O)cc(Nc3cc4cn(C)nc4cc3C(F)(F)F)n(Cc3cc(Cl)c(Cl)cc3F)c2=O)n1
IC50 [5]: 14 nM

COc1ccc(Nc2nc(=O)n(Cc3ccc[nH]c3=O)c(=O)n2Cc2cc(F)c(F)c(F)c2)cc1
IC50 [5]: < 1000 nM

Cn1cnc(Cn2c(=O)cc(Nc3cc4cn(C)nc4cc3F)n(Cc3cc(Cl)c(F)cc3F)c2=O)n1
IC50 [5]: 18 nM

Cc1ccccc1OCc1cc(Cl)cc(-c2cc(-c3c[nH]c(=O)[nH]c3=O)cn(-c3cccnc3)c2=O)c1
IC50 [3]: 100 nM

Cn1cc2cc(/N=c3\[nH]c(=O)n(Cc4cn(CCCCCCCC(=O)Nc5cccc6c5C(=O)N(C5CCC(=O)NC5=O)C6=O)nn4)c(=O)n3Cc3cc(F)c(F)cc3F)c(Cl)cc2n1 (stereo not given)
EC50 [1]: > 100 nM | IC50 [2]: > 100 nM

C[C@H](NC(=O)[C@@H](c1cccnc1)N(C(=O)c1ccco1)c1ccc(-n2cccc2)cc1)c1ccccc1
IC50 [4]: 940 nM | CC50 [6]: > 200000 nM

CCn1cc2cc(Nc3nc(=O)n(-c4cncc(Cl)c4)c(=O)n3Cc3cc(C#N)ccc3C)ccc2n1
IC50 [5]: 234 nM

Cn1cc2cc(/N=c3\[nH]c(=O)n(Cc4cn(CCC(=O)Nc5cccc6c5C(=O)N(C5CCC(=O)NC5=O)C6=O)nn4)c(=O)n3Cc3cc(F)c(F)cc3F)c(Cl)cc2n1 (stereo not given)
EC50 [1]: > 100 nM | IC50 [2]: > 100 nM

Cc1nc2cc(Br)c(Nc3nc(=O)n(Cc4ncn(C)n4)c(=O)n3Cc3cc(F)c(F)c(F)c3)cc2s1
IC50 [5]: < 1000 nM

Cn1cnc(Cn2c(=O)nc(Nc3cc4sc(N)nc4cc3Cl)n(Cc3cc(F)c(F)c(Cl)c3)c2=O)n1
IC50 [5]: < 1000 nM

O=c1[nH]cc(-c2cc(-c3cc(Cl)cc(COc4ccccc4F)c3)c(=O)n(-c3cccnc3)c2)c(=O)[nH]1
IC50 [3]: 24 nM

N#Cc1ccccc1-c1cc(-c2cccc(Cl)c2)cn(-c2cccnc2)c1=O
IC50 [3]: 9990 nM

Cn1cnc(Cn2c(=O)cc(Nc3cc4cn(C)nc4cc3Cl)n(Cc3cc(F)c(F)cc3F)c2=O)n1
IC50 [5]: 10 nM

CC(C)(C)c1ccc(N(C(=O)c2ccco2)[C@@H](C(=O)NC2CCCCC2)c2cccnc2)cc1
IC50 [4]: 2390 nM | CC50 [6]: 18200 nM

Cn1cc2cc(/N=c3\[nH]c(=O)n(Cc4cn(CCCCCCCC(=O)Nc5cccc6c5C(=O)N(C5CCC(=O)NC5=O)C6)nn4)c(=O)n3Cc3cc(F)c(F)cc3F)c(Cl)cc2n1 (stereo not given)
EC50 [1]: > 100 nM | IC50 [2]: > 100 nM

CC(C)(O)Cn1cc2cc(Nc3nc(=O)n(Cc4ccc[nH]c4=O)c(=O)n3Cc3cc(F)c(F)c(F)c3)c(Cl)cc2n1
IC50 [5]: < 1000 nM

COc1ccc(Nc2nc(=O)n(Cc3ccc[nH]c3=O)c(=O)n2Cc2cc(F)c(F)c(F)c2)c(OC)c1
IC50 [5]: < 1000 nM

O=c1[nH]cc(-c2cc(-c3cc(Cl)cc(COc4ccccc4Cl)c3)c(=O)n(-c3cccnc3)c2)c(=O)[nH]1
IC50 [3]: 18 nM

CCOC(=O)/C=C/C(=O)N(c1ccc(-c2ccccc2)cc1)[C@@H](C(=O)N[C@@H](C)c1ccccc1)c1cccnc1
IC50 [7]: > 20000 nM

C=C(Cl)C(=O)N(c1ccc(-c2ccccc2)cc1)[C@@H](C(=O)N[C@@H](C)c1ccccc1)c1cccnc1
IC50 [7]: 4220 nM

Cn1cnc(Cn2c(=O)nc(Nc3cc4sc(NCC(F)F)nc4cc3Cl)n(Cc3cc(F)c(F)c(F)c3)c2=O)n1
IC50 [5]: < 1000 nM
